Experiments:
[1] = Relative binding to alpha-1a and alpha-2 adrenergic receptors (ratio of Ki-prazosin and Ki-clonidine)
[2] = target: T1, Adrenergic receptor alpha-2 (Rattus norvegicus, UniProt P22086+P19328+P22909); experiment: Antagonistic activity against clonidine-stimulated rat vas deferens presynaptic alpha-2 adrenergic receptor; assay type: functional, tissue-based
T1 sequence (P22086 whole entry): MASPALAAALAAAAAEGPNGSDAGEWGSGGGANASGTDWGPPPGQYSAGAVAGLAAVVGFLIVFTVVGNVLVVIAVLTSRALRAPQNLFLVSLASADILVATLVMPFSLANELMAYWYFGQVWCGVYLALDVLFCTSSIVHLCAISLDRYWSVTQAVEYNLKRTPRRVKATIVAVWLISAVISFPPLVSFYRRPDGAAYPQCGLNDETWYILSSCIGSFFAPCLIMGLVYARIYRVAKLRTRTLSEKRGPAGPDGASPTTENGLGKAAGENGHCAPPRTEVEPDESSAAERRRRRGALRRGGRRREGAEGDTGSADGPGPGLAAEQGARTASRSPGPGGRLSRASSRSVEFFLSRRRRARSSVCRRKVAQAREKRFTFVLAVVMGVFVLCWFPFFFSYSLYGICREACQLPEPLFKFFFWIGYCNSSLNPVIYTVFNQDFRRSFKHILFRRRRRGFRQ
T1 sequence (P19328 whole entry): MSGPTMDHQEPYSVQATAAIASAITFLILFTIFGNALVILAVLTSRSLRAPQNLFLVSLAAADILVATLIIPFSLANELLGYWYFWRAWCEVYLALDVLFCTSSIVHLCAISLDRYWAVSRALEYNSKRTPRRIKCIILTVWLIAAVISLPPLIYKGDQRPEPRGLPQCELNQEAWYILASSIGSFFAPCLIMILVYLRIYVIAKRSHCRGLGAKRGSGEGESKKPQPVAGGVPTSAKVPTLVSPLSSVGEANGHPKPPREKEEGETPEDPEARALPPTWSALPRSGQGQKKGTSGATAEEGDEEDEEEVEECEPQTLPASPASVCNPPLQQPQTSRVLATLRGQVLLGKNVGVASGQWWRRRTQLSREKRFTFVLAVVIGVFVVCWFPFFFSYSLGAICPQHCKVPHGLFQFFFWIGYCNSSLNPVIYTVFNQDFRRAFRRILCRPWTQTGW
T1 sequence (P22909 whole entry): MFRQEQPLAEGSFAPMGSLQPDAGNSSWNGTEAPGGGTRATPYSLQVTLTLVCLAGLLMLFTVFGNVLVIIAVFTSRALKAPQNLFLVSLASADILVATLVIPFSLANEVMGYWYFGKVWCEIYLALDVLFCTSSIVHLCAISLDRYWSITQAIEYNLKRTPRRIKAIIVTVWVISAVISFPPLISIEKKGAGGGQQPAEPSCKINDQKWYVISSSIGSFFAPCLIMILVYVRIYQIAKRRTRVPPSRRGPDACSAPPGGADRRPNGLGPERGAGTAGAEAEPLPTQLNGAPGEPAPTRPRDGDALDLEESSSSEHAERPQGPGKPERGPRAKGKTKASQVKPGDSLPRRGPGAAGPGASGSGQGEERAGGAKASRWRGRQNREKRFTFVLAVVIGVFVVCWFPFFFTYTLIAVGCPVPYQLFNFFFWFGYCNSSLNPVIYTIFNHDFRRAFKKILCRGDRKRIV

[3] = Displacement of [3H]clonidine from calf cerebral cortex alpha-2 adrenergic receptor; assay type: tissue-based, Bos taurus
[4] = target: T2, Alpha-1A adrenergic receptor (Bos taurus, UniProt P18130); experiment: Displacement of [3H]prazosin from calf cerebral cortex alpha-1 adrenergic receptor; assay type: tissue-based
T2 sequence (P18130 whole entry): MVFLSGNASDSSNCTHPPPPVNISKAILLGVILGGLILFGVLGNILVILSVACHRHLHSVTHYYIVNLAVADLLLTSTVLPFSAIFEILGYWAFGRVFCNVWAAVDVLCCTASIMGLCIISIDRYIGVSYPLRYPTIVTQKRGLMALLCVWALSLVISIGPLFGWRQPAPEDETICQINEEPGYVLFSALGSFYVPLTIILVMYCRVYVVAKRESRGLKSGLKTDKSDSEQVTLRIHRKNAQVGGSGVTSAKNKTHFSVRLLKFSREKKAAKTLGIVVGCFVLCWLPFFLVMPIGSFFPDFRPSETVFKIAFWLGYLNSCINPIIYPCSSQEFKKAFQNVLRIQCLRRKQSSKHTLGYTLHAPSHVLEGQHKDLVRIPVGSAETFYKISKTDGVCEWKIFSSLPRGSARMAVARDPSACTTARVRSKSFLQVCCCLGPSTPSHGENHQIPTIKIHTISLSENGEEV

[5] = target: T3, Adrenergic receptor alpha-1 (Rattus norvegicus, UniProt P15823+P23944+P43140); experiment: Antagonistic activity upon postsynaptic alpha-1 adrenergic receptor was determined in the rat isolated, field stimulated vas deferens using methoxamine; assay type: functional, tissue-based
T3 sequence (P15823 whole entry): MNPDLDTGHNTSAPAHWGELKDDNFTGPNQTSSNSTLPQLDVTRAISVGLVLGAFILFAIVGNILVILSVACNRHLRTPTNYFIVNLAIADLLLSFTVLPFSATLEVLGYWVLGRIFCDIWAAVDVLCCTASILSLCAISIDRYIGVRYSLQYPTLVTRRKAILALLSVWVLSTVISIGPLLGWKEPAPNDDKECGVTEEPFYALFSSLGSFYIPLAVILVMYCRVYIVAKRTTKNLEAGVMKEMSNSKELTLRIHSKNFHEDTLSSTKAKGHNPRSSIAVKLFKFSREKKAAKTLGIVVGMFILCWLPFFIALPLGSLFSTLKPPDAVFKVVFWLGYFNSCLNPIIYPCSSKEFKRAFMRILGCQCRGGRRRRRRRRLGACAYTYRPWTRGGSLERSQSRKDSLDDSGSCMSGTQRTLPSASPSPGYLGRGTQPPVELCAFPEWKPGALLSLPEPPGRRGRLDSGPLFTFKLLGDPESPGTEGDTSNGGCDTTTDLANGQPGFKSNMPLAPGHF
T3 sequence (P23944 whole entry): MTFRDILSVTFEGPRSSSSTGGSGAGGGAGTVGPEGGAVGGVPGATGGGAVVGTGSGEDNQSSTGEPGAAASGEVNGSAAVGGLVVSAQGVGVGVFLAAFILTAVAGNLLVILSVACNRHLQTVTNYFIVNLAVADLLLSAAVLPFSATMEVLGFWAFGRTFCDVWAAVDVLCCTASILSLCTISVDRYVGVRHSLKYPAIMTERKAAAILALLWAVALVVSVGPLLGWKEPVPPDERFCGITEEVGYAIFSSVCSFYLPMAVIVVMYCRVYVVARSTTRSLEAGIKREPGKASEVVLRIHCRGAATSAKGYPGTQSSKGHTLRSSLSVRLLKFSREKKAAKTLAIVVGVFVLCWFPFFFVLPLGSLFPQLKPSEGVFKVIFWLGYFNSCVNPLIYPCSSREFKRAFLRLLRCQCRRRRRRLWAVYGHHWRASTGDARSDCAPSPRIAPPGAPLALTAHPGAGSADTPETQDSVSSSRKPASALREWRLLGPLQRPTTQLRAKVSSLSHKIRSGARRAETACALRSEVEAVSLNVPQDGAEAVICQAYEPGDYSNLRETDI
T3 sequence (P43140 whole entry): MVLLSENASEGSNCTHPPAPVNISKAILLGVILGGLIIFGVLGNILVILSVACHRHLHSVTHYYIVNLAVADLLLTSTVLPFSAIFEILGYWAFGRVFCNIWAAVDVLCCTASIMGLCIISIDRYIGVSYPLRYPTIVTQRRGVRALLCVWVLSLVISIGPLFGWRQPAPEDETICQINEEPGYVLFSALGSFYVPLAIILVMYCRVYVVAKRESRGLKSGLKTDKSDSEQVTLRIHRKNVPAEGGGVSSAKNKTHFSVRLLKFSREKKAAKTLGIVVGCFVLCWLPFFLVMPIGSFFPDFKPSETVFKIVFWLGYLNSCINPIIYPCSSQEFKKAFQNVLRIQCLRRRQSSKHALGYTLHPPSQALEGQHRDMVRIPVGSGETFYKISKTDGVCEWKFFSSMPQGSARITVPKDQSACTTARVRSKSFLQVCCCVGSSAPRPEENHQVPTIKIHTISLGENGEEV

[6] = Selectivity ratio expressed as the ratio of -log methoxamine pA2 to -log clonidine pA2
Mus musculus = experiment: Compound was evaluated for its antagonistic effect on the Tetrabenazine-induced ptosis following intravenous administration; assay type: functional

| Structure (SMILES) | Selectivity ratio [1] | pA2 [2] | Ki [3] [nM] | Ki [4] [nM] | pA2 [5] | Selectivity ratio [6] | ED50 (Mus musculus) [mg/kg] |
| --- | --- | --- | --- | --- | --- | --- | --- |
| CN1CC=C(c2ncccc2F)CC1 | 150 | 6.8 | 22 | 3300 | 5.3 | 32 | 0.35 |
| CNCCCN1c2ccccc2CCc2ccccc21 [DESIPRAMINE] | – | – | – | – | – | – | 0.07 |
| CN1CC=C(c2cccnc2)CC1 | 6.4 | < 5.8 | 750 | 4800 | – | – | – |
| CN1CC=C(c2ncccc2Cl)CC1 | 31 | < 5.9 | 72 | 2260 | – | – | – |
| CN1CCN(c2ncccc2F)CC1 | 98 | – | 5 | – | – | 16 | – |
| CN1CC=C(c2ccccn2)CC1 | 44 | 6.2 | 57 | 2500 | 5.4 | 6 | 0.5 |
| Cc1cccnc1C1=CCN(C)CC1 | 15 | < 5.8 | 170 | 2500 | – | – | – |
| CN1CC=C(c2ccncc2F)CC1 | 11 | < 5.8 | 720 | 7700 | – | – | – |
| c1ccc(N2CCNCC2)nc1 | 65 | – | 37 | – | – | 5 | – |
| C1=C(c2ccccn2)CCNC1 | 28 | < 5.7 | 144 | 4000 | – | – | – |
| CN1CCC(c2ccccn2)CC1 | 6 | < 5.8 | 420 | 2500 | – | – | – |

From ChEMBL document CHEMBL1122727, “Adrenoceptor and tetrabenazine antagonism activities of some pyridinyltetrahydropyridines” (J Med Chem, 1984)
